Experimental data published in patent US20240301409A1, “Chemically Modified Small Activating RNA” (RACTIGEN THERAPEUTICS, priority 2021, published 2024).
Oligonucleotides are written 5' to 3', each unit as a sugar letter and its base; * is a phosphorothioate linkage, no mark a phosphodiester; rarer units and linkages stand in square brackets, end groups in braces. Plain capitals give the bases only. m = 2'-O-methyl; r = 2'-OH (RNA); f = 2'-fluoro

Columns and labels:
INF-α = assay: PBMC cytokine release assay, INF-α (ELISA); conditions: PBMC, 10 nM, 24 hours
Description: Cells were treated with the indicated duplexes at a final concentration of 10 nM or lipopolysaccharide (LPS) as a positive control for 24 hours, respectively. The levels of INF-α and TNF-α in the cell supernatant were detected by ELISA kit. […] Data represent mean±SD of two independent experiments.
Human peripheral blood mononuclear cells (Allcells, Alameda, CA) were seeded in a 96-well microplate at a density of approximately 10×10^4 cells/well. Transfection of dsRNA was performed using RNAiMAX (Invitrogen, Carlsbad, CA) following manufacturer's instructions. Supernatants were collected 24 hours after transfection and immediately assayed for IFN-α and TNF-α production using ELISA kit (R&D Systems). Each treatment group was analyzed in triplicate.
To assess the immunostimulatory effect of chemically modified saRNAs, human peripheral blood mononuclear cells (PBMC) from healthy donors were incubated with the double-stranded saRNAs, and INF-α and TNF-α levels in the supernatant of treated cells after 24 hours were measured.

[1] = Stability of RNA duplex in human urine (agarose gel); conditions: 37° C.
Description: Double-stranded RNA (7.5 μL, 10 μM) diluted in 17.5 μL PBS was incubated with 25 μL human fresh urine at 37° C. for 0, 1, 24 and 48 hours, respectively. The duplexes obtained at each time point indicated above were each added to 1 μL of 10× loading buffer, and then frozen in liquid nitrogen. After incubation, all samples were detected for the double-stranded RNA by 4% agarose gel electrophoresis, and the content of each duplex was analyzed by Image J software.
To further test the stability of the chemically modified double-stranded saRNA in human urine, the duplexes were incubated in urine for different durations ranging from 0 to 48 hours.

[2] = tested on: Rag1-40 target sequence in the 3′ UTR of firefly luciferase, COS-1 cells; assay: Analysis of off-target effects (pOff-Target dual luciferase reporter in COS-1 cells); conditions: lysed 48 hours after transfection, luciferase activity
Description: A 26 bp fragment comprising the target site of Rag1-40 was cloned in the antisense orientation into the 3′ UTR region of the firefly luciferase gene in a pmirGLO dual luciferase vector. Vector plasmids were co-transfected with the indicated saRNAs into COS-1 cells. Cells were lysed 48 hours after transfection, and the resulting lysates were assessed for luciferase activity. Data represent mean±SD of at least two independent experiments. Dashed line represents comparisons to blank control (top dashed line) and Rag1-40 (bottom dashed line). Values close to the top dashed line indicate no off-target effect.
A 26 bp fragment comprising the Rag1-40 target sequence was cloned in the antisense orientation into a multiple cloning site (MCS) of the 3′ untranslated region of firefly luciferase of the pmirGLO dual luciferase vector (Promega, Fitchburg, WI), to obtain pOff-Target plasmid. Following E. coli transformation and overnight incubation, plasmids for each construct were prepared by standard method. Each plasmid was transfected into COS-1 monkey kidney epithelial cells using Lipofectamine 3000 (Invitrogen, Carlsbad, CA). Subsequently, saRNA was transfected using RNAiMAX. After 24 hours of incubation, COS-1 cells were lysed with 1× lysis buffer, and luciferase activity was measured using dual luciferase reporter gene assay system (Promega, WI, USA) following manufacturer's instructions.
To assess the off-target effects of unmodified and modified saRNAs, a sequence complementary to the sense oligonucleotide strand of Rag1-40 was cloned into the 3′UTR region of the luciferase gene in a pmirGLO dual luciferase vector. The vector plasmid was co-transfected with the saRNA into COS-1 cells. Cells were lysed 48 hours after transfection and the resulting lysates were assessed for luciferase activity.

RNase A = target: T1, RNase A (Bos taurus, UniProt P61823); assay: saRNA stability analysis in the presence of RNase A (agarose gel); conditions: incubation 0 to 96 hours
T1 sequence (P61823 27-150): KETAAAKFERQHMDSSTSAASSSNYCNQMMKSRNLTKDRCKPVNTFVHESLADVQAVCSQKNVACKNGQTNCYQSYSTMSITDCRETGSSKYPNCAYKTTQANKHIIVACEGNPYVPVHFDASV

TNF-α = assay: PBMC cytokine release assay, TNF-α (ELISA); assay type: cell-based, human; conditions: 10 nM, 24 hours
Description: Data represent mean±SD of two independent experiments. […] The values below the line indicate suppressed activities.
Each treatment group was analyzed in triplicate.

Row | Substance | immunostimulatory activity (INF-α) compared with Rag1-40, in words (INF-α) | degradation of duplex at 48 hours [1] | off-target effect compared to unmodified Rag1-40, in words [2] | degradation of duplex at 96 hours (RNase A) | immunostimulatory effect (TNF-α induction) compared with Rag1-40, in words (TNF-α)
1 | Rag1-40-29: saRNA duplex: sense fCfCAACUCAUUCUCCAAG*U*C (SEQ ID NO 16); antisense UACUfUGGAGAAfUGAGUfUGG*fC*A (SEQ ID NO 10) (sense CCAACUCAUUCUCCAAGUC; antisense UACUUGGAGAAUGAGUUGGCA; 2'-F, phosphorothioates; modified_base (1)..(2) (1,2)=2′-fluoro; modified_base (17)..(19) (17,18,19)=phosphorothioate (PS) backbone modification; modified_base (5)..(20) (5,12,17,20)=2′-fluoro; modified_base (19)..(21) (19,20,21)=phosphorothioate (PS) backbone modification) | reduced immunostimulatory activity | mostly degraded | mitigated or similar off-target effects |  | 
2 | Rag1-40-25: saRNA duplex: sense fCfCAACUCAUUCUCCAAG*U*C (SEQ ID NO 16); antisense fUAfCfUfUGGAGAAfUGAGfUfUGGfCA (SEQ ID NO 6) (sense CCAACUCAUUCUCCAAGUC; antisense UACUUGGAGAAUGAGUUGGCA; 2'-F, phosphorothioates; modified_base (1)..(2) (1,2)=2′-fluoro; modified_base (17)..(19) (17,18,19)=phosphorothioate (PS) backbone modification; modified_base (1)..(20) (1,3,4,5,12,16,17,20)=2′-fluoro) |  | no sign of degradation | mitigated or similar off-target effects | little or no signs of degradation | 
3 | Rag1-40-3: saRNA duplex: sense mCmCAACUCAUUCUCCAAGmUmC (SEQ ID NO 5); antisense fUmAfCfUfUmGmGmAmGmAmAfUmGmAmGfUfUmGmGfCmA (SEQ ID NO 8) (sense mCmCrArArCrUrCrArUrUrCrUrCrCrArArGmUmC) |  |  | completely inhibited | little or no signs of degradation | unchanged immunostimulatory activity
4 | Rag1-40-17: saRNA duplex: sense mCmCAACUCAUUCUCCAAG*U*C (SEQ ID NO 15); antisense fUAfCfUfUGGAGAAfUGAGfUfUGGfCA (SEQ ID NO 6) (sense CCAACUCAUUCUCCAAGUC; antisense UACUUGGAGAAUGAGUUGGCA; 2'-OMe, 2'-F, phosphorothioates; modified_base (1)..(2) (1,2)=2′-O-methyl(2′-OMe); modified_base (17)..(19) (17,18,19)=phosphorothioate (PS) backbone modification; modified_base (1)..(20) (1,3,4,5,12,16,17,20)=2′-fluoro) |  | no sign of degradation | mitigated or similar off-target effects | little or no signs of degradation | 
